The text below walks through data of patent US20260265233A1, “BENZOTHIOPHENE DERIVATIVES AS RXFP1 AGONISTS” (BRISTOL-MYERS SQUIBB COMPANY, priority 2021, published 2026).

The target of the test is T1, human RXFP1 (Homo sapiens, UniProt Q9HBX9).
T1 construct: expressed in transfected cells
T1 sequence (Q9HBX9 1-757): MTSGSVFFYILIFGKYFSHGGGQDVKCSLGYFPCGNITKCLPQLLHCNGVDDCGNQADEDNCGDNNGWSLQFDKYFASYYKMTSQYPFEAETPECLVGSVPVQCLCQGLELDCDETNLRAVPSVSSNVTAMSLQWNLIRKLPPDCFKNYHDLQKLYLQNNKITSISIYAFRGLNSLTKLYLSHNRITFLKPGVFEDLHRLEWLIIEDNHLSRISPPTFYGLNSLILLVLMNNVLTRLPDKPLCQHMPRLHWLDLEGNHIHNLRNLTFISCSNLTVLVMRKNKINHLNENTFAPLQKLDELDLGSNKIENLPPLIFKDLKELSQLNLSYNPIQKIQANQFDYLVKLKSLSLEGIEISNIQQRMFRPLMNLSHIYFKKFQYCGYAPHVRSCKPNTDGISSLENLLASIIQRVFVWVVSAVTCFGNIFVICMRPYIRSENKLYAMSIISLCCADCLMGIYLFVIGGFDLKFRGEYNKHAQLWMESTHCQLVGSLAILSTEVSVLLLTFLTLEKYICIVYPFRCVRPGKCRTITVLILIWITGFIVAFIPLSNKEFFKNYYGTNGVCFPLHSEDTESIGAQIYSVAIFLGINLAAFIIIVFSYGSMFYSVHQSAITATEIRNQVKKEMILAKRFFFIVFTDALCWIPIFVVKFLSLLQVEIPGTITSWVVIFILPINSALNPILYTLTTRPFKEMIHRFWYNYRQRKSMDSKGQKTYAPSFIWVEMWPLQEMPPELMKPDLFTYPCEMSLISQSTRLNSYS
Put plainly: hRXFP1 HEK293 cAMP assay (HTRF). It counts as cell-based. The following applies: HEK293 cells stably expressing human RXFP1; 30 min at rt; intracellular cAMP by HTRF. A digest of the protocol: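 Agonism is measured as cAMP by HTRF, quantified from a standard curve via the 665/590 nm ratio and fitted with a four-parameter logistic equation. Compounds (0.010 nM to 50 μM final, 2% DMSO) were applied for 30 min at rt to human RXFP1-expressing HEK293 cells in assay buffer containing 0.5 mM IBMX.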
The term EC50 denotes the concentration at which the effect is half-maximal. The low end stands for an effect from little substance, the high end for a need for much substance. For `COc1ccc(-c2cc(S(=O)(=O)NC(C)(C)C)ccc2F)cc1C(=O)Nc1c(C(=O)Nc2ccc(F)c(C(F)(F)F)c2)sc2cc(C(F)(F)F)ccc12` [Example 111, 3-(5′-(N-(tert-butyl)sulfamoyl)-2′-fluoro-4-methoxy-[1,1′-biphenyl]-3-carboxamido)-N-(4-fluoro-3-(trifluoromethyl)phenyl)-6-(trifluoromethyl) benzo[b] thiophene-2-carboxamide], the EC50 is 28.3 nM.
For the molecule `CCS(=O)(=O)Nc1cncc(-c2ccc(OC)c(C(=O)Nc3c(C(=O)Nc4ccc(F)c(C(F)(F)F)c4)sc4cc(C(F)(F)F)ccc34)c2)c1` [Example 116, 3-(5-(5-(ethylsulfonamido)pyridin-3-yl)-2-methoxy-benzamido)-N-(4-fluoro-3-(trifluoromethyl)phenyl)-6-(trifluoromethyl) benzo[b] thiophene-2-carboxamide], the EC50 was found to be 650 nM.
The molecule `COc1ccc(-c2cncc(NS(C)(=O)=O)c2)cc1C(=O)Nc1c(C(=O)Nc2ccc(F)c(C(F)(F)F)c2)sc2cc(C(F)(F)F)ccc12` [Example 117, N-(4-fluoro-3-(trifluoromethyl)phenyl)-3-(2-methoxy-5-(5-(methyl-sulfonamido)pyridin-3-yl)benzamido)-6-(trifluoromethyl) benzo[b] thiophene-2-carboxamide] registered an EC50 of 131 nM.
As to `COc1ccc(-c2ccc(N3CCNCC3)nc2)cc1C(=O)Nc1c(C(=O)Nc2ccc(F)c(C(F)(F)F)c2)sc2cc(C(F)(F)F)ccc12` [Example 118, N-(4-fluoro-3-(trifluoromethyl)phenyl)-3-(2-methoxy-5-(6-(piperazin-1-yl)pyridin-3-yl)benzamido)-6-(trifluoromethyl) benzo[b] thiophene-2-carboxamide], the EC50 stood at 255 nM. Compared with the last molecule, the EC50 is about 1.9-fold higher.
`COc1ccc(-c2cccc(S(=O)(=O)N(C)C)c2)cc1C(=O)Nc1c(C(=O)Nc2ccc(F)c(C(F)(F)F)c2)sc2cc(C(F)(F)F)ccc12` [Example 119, 3-(3′-(N,N-dimethyl-sulfamoyl)-4-methoxy-[1,1′-biphenyl]-3-carboxamido)-N-(4-fluoro-3-(trifluoromethyl)phenyl)-6-(trifluoromethyl) benzo[b] thiophene-2-carboxamide] came in with an EC50 of 282 nM.
`COc1ccc(-c2cccc(C(C)(C)O)c2)cc1C(=O)Nc1c(C(=O)Nc2ccc(F)c(C(F)(F)F)c2)sc2cc(C(F)(F)F)ccc12` [Example 120, N-(4-fluoro-3-(trifluoromethyl)phenyl)-3-(3′-(2-hydroxypropan-2-yl)-4-methoxy-[1,1′-biphenyl]-3-carboxamido)-6-(trifluoromethyl) benzo[b] thiophene-2-carboxamide] came in with an EC50 of 228 nM.
The value for `COc1ccc(-c2cccc(CNS(C)(=O)=O)c2)cc1C(=O)Nc1c(C(=O)Nc2ccc(F)c(C(F)(F)F)c2)sc2cc(C(F)(F)F)ccc12` [Example 121, N-(4-fluoro-3-(trifluoromethyl)phenyl)-3-(4-methoxy-3′-(methylsulfon-amidomethyl)-[1,1′-biphenyl]-3-carboxamido)-6-(trifluoromethyl) benzo[b] thiophene-2-carboxamide] was 111 nM.
Turning to `COc1ccc(-c2cccc(NS(C)(=O)=O)c2)cc1C(=O)Nc1c(C(=O)Nc2ccc(F)c(C(F)(F)F)c2)sc2cc(C(F)(F)F)ccc12` [Example 123, N-(4-fluoro-3-(trifluoromethyl)phenyl)-3-(4-methoxy-3′-(methylsulfon-amido)-[1,1′-biphenyl]-3-carboxamido)-6-(trifluoromethyl) benzo[b] thiophene-2-carboxamide], the EC50 was 236 nM.
Regarding `COc1ccc(C#CC(C)(C)O)cc1C(=O)Nc1c(C(=O)Nc2ccc(F)c(C(F)(F)F)c2)sc2cc(C(F)(F)F)ccc12` [Example 124, N-(4-fluoro-3-(trifluoromethyl)phenyl)-3-(5-(3-hydroxy-3-methylbut-1-yn-1-yl)-2-methoxybenz-amido)-6-(trifluoromethyl) benzo[b] thiophene-2-carboxamide], a half-maximal response (EC50) required 560 nM.
